In the NIST ThermoML archive (doi:10.1016/j.fluid.2005.05.023):

Details: Liquid, Vibrating tube method

CCO [ethanol]
mass density [kg/m3]
Details | 100 kPa | 5000 kPa | 10000 kPa | 15000 kPa | 20000 kPa | 25000 kPa | 30000 kPa | 35000 kPa | 40000 kPa | 45000 kPa
283.15 K | 798 | 802 | 805.9 | 809.5 | 813 | 816.4 | 819.7 | 822.8 | 825.9 | 828.8
293.15 K | 789.5 | 793.7 | 797.8 | 801.6 | 805.3 | 808.9 | 812.3 | 815.6 | 818.7 | 821.8
303.15 K | 780.9 | 785.3 | 789.6 | 793.7 | 797.5 | 801.3 | 804.8 | 808.2 | 811.5 | 814.7
313.15 K | 772.1 | 776.8 | 781.3 | 785.6 | 789.6 | 793.5 | 797.2 | 800.8 | 804.2 | 807.6
323.15 K | 763.3 | 768.3 | 773 | 777.6 | 781.8 | 785.9 | 789.7 | 793.5 | 797.1 | 800.5
333.15 K | 754 | 759.3 | 764.3 | 769.1 | 773.6 | 777.8 | 781.9 | 785.8 | 789.5 | 793.1
343.15 K | 744.5 | 750.1 | 755.5 | 760.5 | 765.3 | 769.8 | 774 | 778.1 | 782 | 785.7
353.15 K | – | 740.6 | 746.4 | 751.7 | 756.7 | 761.5 | 766 | 770.2 | 774.3 | 778.2

Cc1ccccc1 [toluene]
mass density [kg/m3]
Details | 100 kPa | 5000 kPa | 10000 kPa | 15000 kPa | 20000 kPa | 25000 kPa | 30000 kPa | 35000 kPa | 40000 kPa | 45000 kPa
283.15 K | 876.1 | 879.5 | 882.9 | 886.1 | 889.3 | 892.4 | 895.3 | 898.2 | 901 | 903.7
293.15 K | 866.8 | 870.5 | 874.1 | 877.5 | 880.8 | 884 | 887.1 | 890.1 | 893 | 895.9
303.15 K | 857.5 | 861.4 | 865.2 | 868.8 | 872.3 | 875.7 | 879 | 882.1 | 885.2 | 888.1
313.15 K | 848.1 | 852.2 | 856.2 | 860 | 863.7 | 867.3 | 870.7 | 874 | 877.2 | 880.3
323.15 K | 838.6 | 843 | 847.2 | 851.3 | 855.2 | 858.9 | 862.5 | 866 | 869.4 | 872.6
333.15 K | 828.8 | 833.5 | 838 | 842.3 | 846.4 | 850.4 | 854.2 | 857.9 | 861.4 | 864.8
343.15 K | 819.2 | 824.1 | 829 | 833.5 | 837.9 | 842.1 | 846 | 849.9 | 853.5 | 857
353.15 K | 809.4 | 814.7 | 819.9 | 824.7 | 829.3 | 833.7 | 837.9 | 841.9 | 845.7 | 849.4
